This note sets out measurements from patent publication US4578393A, “Dihydroisoquinoline derivatives” (Beecham Group p.l.c., priority 1983, dated 1986).

Assay [1] concerns adjuvant arthritis in the rat. The assay is described as follows: Adjuvant arthritis test in the rat. The format is in vivo. The conditions noted are these: read-out: ACTIVE DOSE. An excerpt: The test is as described by Newbould, Brit. J. Pharmacol., 1963, 21, 127-136. Compounds were active at the doses shown below.
For the next assay, the target named is T1, 5-Lipoxygenase enzyme (Rattus norvegicus, UniProt P12527).
T1 construct: 5-Lipoxygenase enzyme was prepared as a 10,000 g supernatant from RBL-1 cells; endogenous in cells; host or cells: RBL-1 cells (10,000 g supernatant)
T1 sequence (P12527 1-673): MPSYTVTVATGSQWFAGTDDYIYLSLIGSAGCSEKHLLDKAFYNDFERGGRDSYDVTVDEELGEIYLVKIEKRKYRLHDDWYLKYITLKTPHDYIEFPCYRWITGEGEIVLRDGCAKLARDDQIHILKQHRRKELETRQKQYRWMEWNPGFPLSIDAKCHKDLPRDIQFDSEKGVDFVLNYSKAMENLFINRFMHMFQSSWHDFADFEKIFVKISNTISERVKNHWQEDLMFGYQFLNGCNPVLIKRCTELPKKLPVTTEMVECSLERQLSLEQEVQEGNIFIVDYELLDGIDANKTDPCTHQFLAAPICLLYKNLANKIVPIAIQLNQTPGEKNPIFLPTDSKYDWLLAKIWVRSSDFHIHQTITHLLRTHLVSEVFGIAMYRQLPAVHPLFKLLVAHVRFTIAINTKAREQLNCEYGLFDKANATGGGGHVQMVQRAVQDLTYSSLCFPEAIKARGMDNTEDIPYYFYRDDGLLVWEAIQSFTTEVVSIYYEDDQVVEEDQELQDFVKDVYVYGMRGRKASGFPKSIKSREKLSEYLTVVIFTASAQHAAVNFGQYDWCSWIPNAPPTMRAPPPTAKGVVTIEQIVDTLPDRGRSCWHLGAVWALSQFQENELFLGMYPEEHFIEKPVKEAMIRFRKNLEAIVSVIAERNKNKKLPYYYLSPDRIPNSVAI
The assay is described as follows: Inhibition of 5-lipoxygenase activity (10,000 g supernatant from RBL-1 cells). The class given is biochemical. The conditions noted are these: RBL-1 supernatant, 6.3 μm arachidonic acid, 29° C. As for the experimental part:
5-Lipoxygenase enzyme was prepared as a 10,000 g supernatant from RBL-1 cells by the method of Jakschik [Jakschik, B. A., F. F. Sun, L. M. Lee, and M. M. Steinhoff, 1980, Biochem. Biophys. Res. Comm. 95, 103]. The 10,000 g supernatant was diluted with homogenization buffer to the equivalent of 1.5-2.5×10^7 cells. ml^-1 and made 2 mM with respect to CaCl2. Aliquots of 0.5 ml were then dispensed into tubes, and incubated at 29° C. with 5 μl ethanol or compound in ethanol at the desired concentration for 2 min. Then [1-^14 C] arachidonic acid was added in buffer to give a final concentration of 6.3 μm and 0.2 μCi per incubation, and the reaction continued at 29° C. for 2 min. The reaction was terminated by adding 1 ml of acetone and cooling on ice, 0.5 ml of ice-cold saline and 10 μl of 2N formic acid were added, and the mixture was extracted with 2×2 ml of chloroform. The extract was stored under N2 at -20° C. until analysis by chromatography. Activity was measured as the percentage of total radioactivity found in 5-HETE and 5,12-diHETE, and inhibition calculated as the decrease in formation of the sum of these two species in compound-treated incubates relative to control incubates.
(P values as assessed by the students `t` test).

Counter-ions that a name gives are not always drawn. Like-named read-outs stand apart in the source and are kept apart here.

As to `CN(C)C1=NC(c2ccccc2F)c2ccccc2C1` (stereo not shown) [Example 10, 1-(2-Fluorophenyl)-1,4-dihydro-3-dimethylaminoisoquinoline hydrochloride], in assay [1] (po), the minimal effective dose amounted to 25 mg/kg.

`CN(C)C1=NC(c2ccccc2Cl)c2ccccc2C1.Cl` (stereo not shown) [Example 1, 1-(2-Chlorophenyl)-3-dimethylamino-1,4-dihydroisoquinoline hydrochloride]: the entries for the “inhibition of 5-lipoxygenase (formation of 5-HETE and 5,12-diHETE)” value against 5-Lipoxygenase enzyme (concentration of 5 μm) and against 5-Lipoxygenase enzyme (concentration of 50 μm) were 15% and 50%, respectively. In assay [1] (po), the minimal effective dose stood at 25 mg/kg. As for `Br.CN(C)C1=NC(c2ccc(Cl)cc2)c2ccc(O)cc2C1` (stereo not shown) [Example 32, 1-(4-Chlorophenyl)-3-dimethylamino-6-hydroxy-1,4-dihydroisoquinoline hydrobromide], in assay [1] (ip), the minimal effective dose stood at 25 mg/kg.

As for `CN(C)C1=NC(c2ccc(Cl)cc2)c2ccccc2C1.Cl.O` (stereo not shown) [Example 2, 1-(4-Chlorophenyl)-3-dimethylamino-1,4-dihydroisoquinoline hydrochloride hydrate], the minimal effective dose in assay [1] (po) turned out to be 12.5 mg/kg. In the case of `Br.CN(C)C1=NC(c2ccc(Cl)cc2)c2cc(O)c(O)cc2C1` (stereo not shown) [Example 30, 1-(4-Chlorophenyl)-6,7-dihydroxy-3-dimethylamino-1,4-dihydroisoquinoline hydrobromide], the figures for the “inhibition of 5-lipoxygenase (formation of 5-HETE and 5,12-diHETE)” value against 5-Lipoxygenase enzyme (concentration of 5 μm) and against 5-Lipoxygenase enzyme (concentration of 50 μm) were 37% and 92%, respectively. In addition, the minimal effective dose in assay [1] (ip) was 12.5 mg/kg. With `Br.CN(C)C1=NC(c2ccc(Cl)cc2)c2c(O)cccc2C1.O` (stereo not shown) [Example 31, 1-(4-Chlorophenyl)-3-dimethylamino-8-hydroxy-1,4-dihydroisoquinoline hydrobromide hydrate], in assay [1] (ip), the minimal effective dose was 20 mg/kg.
